What all share (test): relative viability (nuclei count vs DMSO), 5 days (fraction); higher = more cells survive
Compound in test [1]: CS(=O)(=O)CCNCc1ccc(-c2ccc3ncnc(Nc4ccc(OCc5cccc(F)c5)c(Cl)c4)c3c2)o1 [Lapatinib] + CC(=O)Nc1cccc(-n2c(=O)n(C3CC3)c(=O)c3c(Nc4ccc(I)cc4F)n(C)c(=O)c(C)c32)c1 [Trametinib] (partner 0.02 µM)
In a few lines: (§1)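 Medians of duplicate plates are given as relative viability. That measure is the nuclei count in treated wells divided by the count in vehicle wells. Counts were taken on 4× images of lung cancer cell lines in 1536-well plates, 5 days after pin-tool dosing the day after seeding with one drug alone or a fixed anchor-drug dose plus five library-drug doses (not always all listed) in √10 steps.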

Compound in test [2]: CC1=NC=CC(=C1)C2=CC=C(C=C2)CC(=O)NC3=CC=C(C=C3)C4=CN=CC=C4 [Wnt-C59] + CC1(C)CCC(c2ccc(Cl)cc2)=C(CN2CCN(c3ccc(C(=O)NS(=O)(=O)c4ccc(N[C@H](CCN5CCOCC5)CSc5ccccc5)c(S(=O)(=O)C(F)(F)F)c4)cc3)CC2)C1 [Navitoclax] (partner 0.5 µM)
In a few lines: as §1

Compound in test [3]: CC1=NC=CC(=C1)C2=CC=C(C=C2)CC(=O)NC3=CC=C(C=C3)C4=CN=CC=C4 [Wnt-C59] + C[C@@H](Oc1cc(-c2cnn(C3CCNCC3)c2)cnc1N)c1c(Cl)ccc(F)c1Cl [Crizotinib] (partner 1 µM)
Summed up: as §1

Compound in test [4]: CS(=O)(=O)CCNCc1ccc(-c2ccc3ncnc(Nc4ccc(OCc5cccc(F)c5)c(Cl)c4)c3c2)o1 [Lapatinib] + NC(=O)Nc1cc(-c2cccc(F)c2)sc1C(=O)N[C@H]1CCCNC1 [AZD7762] (partner 0.2 µM)
Summed up:
as §1

Regarding HOP-62, the relative viability in test [1] (first compound 0.06325 µM) came out at 0.378; in test [1] (first compound 0.2 µM), 0.343; in test [1] (first compound 0.6325 µM), 0.472; in test [1] (first compound 2 µM), 0.293; in test [2] (first compound 0.001 µM) it was 1.05; in test [2] (first compound 0.01 µM), 1.04. For the same cell line, the relative viability in test [2] (first compound 0.03162 µM) worked out at 0.98; in test [2] (first compound 0.1 µM) it was 0.903; in test [3] (first compound 0.001 µM) it was 0.973; in test [3] (first compound 0.01 µM), 0.916; in test [3] (first compound 0.03162 µM), 0.974; in test [3] (first compound 0.1 µM), 0.789. The relative viability in test [4] (first compound 0.06325 µM) is 0.526; in test [4] (first compound 0.2 µM), 0.669; in test [4] (first compound 0.6325 µM), 0.501; in test [4] (first compound 2 µM), 0.568.

As for LK-2, the relative viability turned out to be 0.858 in test [1] (first compound 0.02 µM); 0.782 in test [1] (first compound 0.2 µM); 0.663 in test [1] (first compound 0.6325 µM); 0.832 in test [1] (first compound 2 µM); 0.884 in test [2] (first compound 0.001 µM); 0.972 in test [2] (first compound 0.01 µM). Besides, the relative viability in test [2] (first compound 0.03162 µM) came to 1.02; in test [2] (first compound 0.1 µM), 0.868; in test [3] (first compound 0.001 µM) it was 0.228; in test [3] (first compound 0.01 µM) it was 0.238; in test [3] (first compound 0.03162 µM), 0.212; in test [3] (first compound 0.1 µM), 0.259. The relative viability was found to be 0.393 in test [4] (first compound 0.02 µM), 0.379 in test [4] (first compound 0.2 µM) and 0.636 in test [4] (first compound 2 µM).

Consider NCI-H441, for which the relative viability in test [1] (first compound 0.02 µM) turned out to be 0.429; in test [1] (first compound 0.2 µM), 0.398; in test [1] (first compound 0.6325 µM) it was 0.392; in test [1] (first compound 2 µM) it was 0.417; in test [2] (first compound 0.001 µM), 0.709; in test [2] (first compound 0.01 µM), 1.06. The relative viability in test [2] (first compound 0.03162 µM) was 0.743; in test [2] (first compound 0.1 µM), 0.517; in test [3] (first compound 0.001 µM), 0.731; in test [3] (first compound 0.01 µM), 0.906; in test [3] (first compound 0.03162 µM), 0.805; in test [3] (first compound 0.1 µM), 0.615. Also, the relative viability in test [4] (first compound 0.02 µM) was determined as 1.17; in test [4] (first compound 0.2 µM) it was 1.15; in test [4] (first compound 0.6325 µM), 0.856; in test [4] (first compound 2 µM) it was 1.14.

Turning to PC-14, the relative viability in test [1] (first compound 0.02 µM) amounted to 0.768; in test [1] (first compound 0.06325 µM), 0.674; in test [1] (first compound 0.2 µM), 0.796; in test [1] (first compound 0.6325 µM) it was 0.827; in test [1] (first compound 2 µM) it was 0.0695; in test [2] (first compound 0.001 µM), 1. The relative viability amounted to 1.15 in test [2] (first compound 0.01 µM); 1.06 in test [2] (first compound 0.03162 µM); 1.02 in test [2] (first compound 0.1 µM); 0.999 in test [3] (first compound 0.001 µM); 0.857 in test [3] (first compound 0.01 µM); 0.818 in test [3] (first compound 0.03162 µM). Besides, the relative viability was 0.848 in test [3] (first compound 0.1 µM); 0.362 in test [4] (first compound 0.02 µM); 0.331 in test [4] (first compound 0.06325 µM); 0.301 in test [4] (first compound 0.2 µM); 0.295 in test [4] (first compound 0.6325 µM); 0.138 in test [4] (first compound 2 µM).

Turning to EMC-BAC-2, the relative viability in test [1] (first compound 0.06325 µM) worked out at 0.526; in test [1] (first compound 0.6325 µM) it was 0.83; in test [1] (first compound 2 µM) it was 0.789; in test [2] (first compound 0.001 µM) it was 1.11; in test [2] (first compound 0.01 µM), 0.97; in test [2] (first compound 0.03162 µM), 1.16. Further, the relative viability came to 0.969 in test [2] (first compound 0.1 µM); 0.642 in test [3] (first compound 0.001 µM); 0.649 in test [3] (first compound 0.01 µM); 0.636 in test [3] (first compound 0.03162 µM); 0.678 in test [3] (first compound 0.1 µM); 0.938 in test [4] (first compound 0.06325 µM). Moreover, the values for the relative viability in test [4] (first compound 0.2 µM), in test [4] (first compound 0.6325 µM) and in test [4] (first compound 2 µM) were 1.05, 1.13 and 1.18, respectively.

Regarding NCI-H2087, the relative viability in test [1] (first compound 0.02 µM) amounted to 0.208; in test [1] (first compound 0.06325 µM) it was 0.186; in test [1] (first compound 0.2 µM), 0.182; in test [1] (first compound 0.6325 µM) it was 0.217; in test [1] (first compound 2 µM), 0.191; in test [2] (first compound 0.001 µM) it was 1.03. Also, the relative viability in test [2] (first compound 0.01 µM) stood at 0.981; in test [2] (first compound 0.03162 µM), 1.01; in test [2] (first compound 0.1 µM) it was 0.93; in test [3] (first compound 0.001 µM), 0.737; in test [3] (first compound 0.01 µM), 0.884; in test [3] (first compound 0.03162 µM), 0.792. Moreover, the relative viability in test [3] (first compound 0.1 µM) was found to be 0.778; in test [4] (first compound 0.02 µM) it was 1.5; in test [4] (first compound 0.06325 µM), 1.47; in test [4] (first compound 0.2 µM) it was 1.17; in test [4] (first compound 0.6325 µM), 1.36; in test [4] (first compound 2 µM), 1.25.

With NCI-H1355, the relative viability in test [1] (first compound 0.02 µM) stood at 0.406; in test [1] (first compound 0.06325 µM) it was 0.349; in test [1] (first compound 0.2 µM), 0.37; in test [1] (first compound 0.6325 µM), 0.387; in test [1] (first compound 2 µM), 0.261; in test [2] (first compound 0.001 µM), 1.01. Besides, the relative viability was 0.876 in test [2] (first compound 0.01 µM); 0.905 in test [2] (first compound 0.03162 µM); 0.88 in test [2] (first compound 0.1 µM); 1.01 in test [3] (first compound 0.001 µM); 1.05 in test [3] (first compound 0.01 µM); 1.06 in test [3] (first compound 0.03162 µM). In addition, the relative viability was found to be 0.966 in test [3] (first compound 0.1 µM); 0.674 in test [4] (first compound 0.02 µM); 0.627 in test [4] (first compound 0.06325 µM); 0.72 in test [4] (first compound 0.2 µM); 0.753 in test [4] (first compound 0.6325 µM); 0.549 in test [4] (first compound 2 µM).

Consider HCC-15, for which the relative viability in test [1] (first compound 0.06325 µM) turned out to be 0.243; in test [1] (first compound 0.2 µM) it was 0.386; in test [1] (first compound 0.6325 µM), 0.312; in test [1] (first compound 2 µM) it was 0.341; in test [2] (first compound 0.001 µM), 0.799; in test [2] (first compound 0.01 µM), 0.708. The relative viability in test [2] (first compound 0.03162 µM) was found to be 0.7; in test [2] (first compound 0.1 µM) it was 0.76; in test [3] (first compound 0.001 µM), 0.891; in test [3] (first compound 0.01 µM) it was 0.82; in test [3] (first compound 0.03162 µM), 0.919; in test [3] (first compound 0.1 µM) it was 0.85. Further, the relative viability in test [4] (first compound 0.06325 µM) was 1.09; in test [4] (first compound 0.2 µM), 1.24; in test [4] (first compound 0.6325 µM) it was 1.24; in test [4] (first compound 2 µM), 1.16.

With NCI-H1792, the relative viability is 0.402 in test [1] (first compound 0.2 µM); 0.457 in test [1] (first compound 0.6325 µM); 0.352 in test [1] (first compound 2 µM); 0.671 in test [2] (first compound 0.001 µM); 0.669 in test [2] (first compound 0.01 µM); 0.695 in test [2] (first compound 0.03162 µM). The relative viability was 0.701 in test [2] (first compound 0.1 µM); 0.914 in test [3] (first compound 0.001 µM); 1.02 in test [3] (first compound 0.01 µM); 1.04 in test [3] (first compound 0.03162 µM); 1.06 in test [3] (first compound 0.1 µM); 0.568 in test [4] (first compound 0.2 µM). Besides, the relative viability in test [4] (first compound 0.6325 µM) is 0.665; in test [4] (first compound 2 µM), 0.365.

Source of the values: the supplement of paper PMC10307832.
